Results: patent publication US20100041631A1 (priority 2006, published 2010)
Where two headings read alike, the source gives them in different places.

Columns and labels:
HsaCH37Rv = HsaCH37Rv (Mycobacterium tuberculosis, UniProt P9WNW7); type: biochemical, M. tuberculosis H37Rv; conditions: for Km: cell extract, pH 8.0, 25 °C
M tuberculosis HsaC = M tuberculosis HsaC (Mycobacterium tuberculosis, UniProt P9WNW7); assay: Inhibition of cloned M. tuberculosis HsaC, spectroscopic assay; type: biochemical; conditions: in a manner consistent with oxidation of the active site Fe(II)
HsaDH37Rv = HsaDH37Rv (Mycobacterium tuberculosis, UniProt P9WNH5); type: biochemical, M. tuberculosis H37Rv; conditions: for Vmax / Km: substrate of HsaDH37Rv, standard error in parentheses; for Km: cell extract, pH 8.0, 25 °C
M. tuberculosis H37Rv = assay: Growth of H37Rv on cholesterol or 4-AD as growth substrate; type: cell-based; conditions: for growth of H37Rv colonies on solid medium: substance as the sole organic substrate, no growth on control medium
[1] = system: M. bovis Bacillus Calmette-Guerin (BCG); type: cell-based
[2] = substrate of HsaCH37Rv, standard error in parentheses

Chain of HsaCH37Rv (P9WNW7 whole entry, looked up): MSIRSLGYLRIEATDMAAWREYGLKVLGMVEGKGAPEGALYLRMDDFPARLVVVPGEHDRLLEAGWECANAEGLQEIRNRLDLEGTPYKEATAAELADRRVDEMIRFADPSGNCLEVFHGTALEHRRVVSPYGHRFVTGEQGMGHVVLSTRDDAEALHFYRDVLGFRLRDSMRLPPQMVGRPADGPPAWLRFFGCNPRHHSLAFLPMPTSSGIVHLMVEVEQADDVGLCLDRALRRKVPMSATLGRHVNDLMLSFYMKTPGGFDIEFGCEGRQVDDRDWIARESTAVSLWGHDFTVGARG
Chain of HsaDH37Rv (P9WNH5 whole entry, looked up): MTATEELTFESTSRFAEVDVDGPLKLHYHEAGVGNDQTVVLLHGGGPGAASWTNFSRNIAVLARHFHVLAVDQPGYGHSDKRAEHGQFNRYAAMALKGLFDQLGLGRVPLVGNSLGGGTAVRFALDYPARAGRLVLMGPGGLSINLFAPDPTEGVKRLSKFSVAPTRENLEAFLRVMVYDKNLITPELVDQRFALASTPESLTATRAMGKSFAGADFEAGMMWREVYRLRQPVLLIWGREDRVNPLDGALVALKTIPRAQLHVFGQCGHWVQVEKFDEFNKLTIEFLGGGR
Chain of M tuberculosis HsaC (P9WNW7 whole entry, looked up): as the sequence (P9WNW7 whole entry, looked up) above

`Cc1ccc(O)c(O)c1CC[C@@H]1C(=O)CC[C@]2(C)C(=O)CC[C@@H]12` [3,4-DHSA, 3,4-dihydroxy-9,10-seconandrost-1,3,5(10)-triene-9,17-dione] was tested, and the “apparent specificity of extradiol cleavage relative to DHB” value (HsaCH37Rv) was 44 fold, the Vmax (HsaCH37Rv; substrate of HsaCH37Rv, […], standard error in parentheses) was 12 (4) μM^s−1 and the Km (HsaCH37Rv; [2]) was 0.9 µM.

For `Oc1cccc(Cl)c1O` [3CC, 3-chlorocatechol], the “inactivation of HsaC” value (M tuberculosis HsaC) was “inactivated HsaC”.

`C/C(=C\C=C(/O)C(=O)O)C(=O)CC[C@@H]1C(=O)CC[C@]2(C)C(=O)CC[C@@H]12` [4,9-DSHA, 4,5-9,10-diseco-3-hydroxy-5,9,17-trioxoandrosta-1(10),2-diene-4-oic acid] was tested, and the “apparent specificity of hydrolysis relative to HOPDA” value (HsaDH37Rv; […], higher than for HOPDA) was 34 fold, the Vmax (HsaDH37Rv; […]) was 0.06 (0.02) μM^s−1 and the Km (HsaDH37Rv) was 4 µM.

`C[C@]12CCC(=O)C=C1CC[C@@H]1[C@@H]2CC[C@]2(C)C(=O)CC[C@@H]12` [4-AD, 4-androstene-3,17-dione] was tested, and the “growth of H37Rv colonies on solid medium” value (M. tuberculosis H37Rv) was “Colonies grew”.

For `Oc1cccc(-c2ccccc2)c1O` [DHB], the Vmax (HsaCH37Rv) was 2.5 (0.4) μM^s−1 and the Km (HsaCH37Rv; [2]) was 8.5 µM.

For `O=C(O)C(O)=CC=CC(=O)c1ccccc1` [HOPDA, 2-hydroxy-6-oxo-6-phenylpentadienoate], the Vmax (HsaDH37Rv; […]) was 0.009 (0.003) μM^s−1 and the Km (HsaDH37Rv) was 19 µM.

With `CC(C)CCC[C@@H](C)[C@H]1CC[C@H]2[C@@H]3CC=C4C[C@@H](O)CC[C@]4(C)[C@H]3CC[C@]12C` [cholesterol] the “growth of H37Rv in liquid culture” value (M. tuberculosis H37Rv; phospholipid vesicles containing cholesterol versus vesicles containing no cholesterol) was “grew faster”, the “growth of H37Rv colonies on solid medium” value (M. tuberculosis H37Rv) was “Colonies grew” and the “overall protein yield of BCG culture” value ([1]; medium supplemented with 0.25 mM cholesterol (0 mM: 22+/−7)) was 46 ± 9 µg/mL. The “overall protein yield of BCG culture” value ([1]; medium supplemented with 0.5 mM cholesterol (0 mM: 22+/−7)) was 70 ± 4 µg/mL.
